In the supplement of paper PMC10307832:

Experiments:
Test in all cases: relative viability (nuclei count vs DMSO), 5 days (fraction); higher = more cells survive
MK-2206 + Tozasertib = compound: NC1(c2ccc(-c3nc4ccn5c(=O)[nH]nc5c4cc3-c3ccccc3)cc2)CCC1 [MK-2206] + Cc1cc(Nc2cc(N3CCN(C)CC3)nc(Sc3ccc(NC(=O)C4CC4)cc3)n2)n[nH]1 [Tozasertib] (partner 0.1 µM)
Summary of the method: (§1)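 A single step with final 0.05% Triton X-100, 1% formaldehyde and 1 ug/ml Hoechst fixed the cells and stained nuclei 5 days after treatment. Lung cancer cell lines in 1536-well plates had been treated by pin tool the day after seeding with one drug alone or a fixed anchor-drug dose plus five library-drug doses (not always all listed) in √10 steps, and nuclei were counted on 4× images. Relative viability is the ratio of nuclei in treated wells to nuclei in vehicle wells, taken as the median of duplicate plates.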

Pictilisib + Decitabine = compound: CS(=O)(=O)N1CCN(Cc2cc3nc(-c4cccc5[nH]ncc45)nc(N4CCOCC4)c3s2)CC1 [Pictilisib] + Nc1ncn([C@H]2C[C@H](O)[C@@H](CO)O2)c(=O)n1 [Decitabine] (partner 2 µM)
Summary of the method: as §1

MK-2206 + Olaparib = compound: NC1(c2ccc(-c3nc4ccn5c(=O)[nH]nc5c4cc3-c3ccccc3)cc2)CCC1 [MK-2206] + O=C(c1cc(Cc2n[nH]c(=O)c3ccccc23)ccc1F)N1CCN(C(=O)C2CC2)CC1 [Olaparib] (partner 8 µM)
Summary of the method: as §1

Pictilisib + Navitoclax = compound: CS(=O)(=O)N1CCN(Cc2cc3nc(-c4cccc5[nH]ncc45)nc(N4CCOCC4)c3s2)CC1 [Pictilisib] + CC1(C)CCC(c2ccc(Cl)cc2)=C(CN2CCN(c3ccc(C(=O)NS(=O)(=O)c4ccc(N[C@H](CCN5CCOCC5)CSc5ccccc5)c(S(=O)(=O)C(F)(F)F)c4)cc3)CC2)C1 [Navitoclax] (partner 0.5 µM)
Summary of the method: as §1

Pictilisib + Bortezomib = compound: CS(=O)(=O)N1CCN(Cc2cc3nc(-c4cccc5[nH]ncc45)nc(N4CCOCC4)c3s2)CC1 [Pictilisib] + CC(C)C[C@H](NC(=O)[C@H](Cc1ccccc1)NC(=O)c1cnccn1)B(O)O [Bortezomib] (partner 0.002 µM)
Summary of the method: as §1

Cell Line | relative viability (MK-2206 + Tozasertib; first compound 0.01 µM) | relative viability (MK-2206 + Tozasertib; first compound 0.03162 µM) | relative viability (MK-2206 + Tozasertib; first compound 0.3162 µM) | relative viability (MK-2206 + Tozasertib; first compound 1 µM) | relative viability (Pictilisib + Decitabine; first compound 0.02 µM) | relative viability (Pictilisib + Decitabine; first compound 0.06325 µM) | relative viability (Pictilisib + Decitabine; first compound 0.6325 µM) | relative viability (Pictilisib + Decitabine; first compound 2 µM) | relative viability (MK-2206 + Olaparib; first compound 0.01 µM) | relative viability (MK-2206 + Olaparib; first compound 0.03162 µM) | relative viability (MK-2206 + Olaparib; first compound 0.3162 µM) | relative viability (MK-2206 + Olaparib; first compound 1 µM) | relative viability (Pictilisib + Navitoclax; first compound 0.02 µM) | relative viability (Pictilisib + Navitoclax; first compound 0.06325 µM) | relative viability (Pictilisib + Navitoclax; first compound 0.6325 µM) | relative viability (Pictilisib + Navitoclax; first compound 2 µM) | relative viability (Pictilisib + Bortezomib; first compound 0.02 µM) | relative viability (Pictilisib + Bortezomib; first compound 0.06325 µM) | relative viability (Pictilisib + Bortezomib; first compound 0.6325 µM) | relative viability (Pictilisib + Bortezomib; first compound 2 µM)
201T | 0.962 | 0.931 | 0.98 | 0.948 | 0.869 | 0.83 | 0.675 | 0.843 | 0.825 | 0.857 | 0.858 | 0.856 | 1.23 | 1.18 | 1.24 | 0.792 | 1.12 | 1.1 | 1.07 | 0.993
A549 | – | – | – | – | 0.256 | 0.289 | 0.259 | 0.22 | 0.389 | 0.439 | 0.333 | 0.125 | 1.32 | 1.25 | 0.919 | 0.401 | – | – | – | –
A-427 | 0.218 | 0.197 | 0.191 | 0.207 | 0.579 | 0.492 | 0.486 | 0.453 | 0.724 | 0.704 | 0.78 | 0.699 | 0.952 | 0.785 | 1.04 | 0.809 | 1.03 | 0.949 | 0.985 | 0.858
ABC-1 | 0.145 | 0.148 | 0.167 | 0.163 | 1.16 | 1.19 | 1.07 | 0.703 | 0.898 | 0.841 | 1.1 | 1.08 | – | – | – | – | 0.313 | 0.316 | 0.281 | 0.223
BEN | 0.554 | 0.621 | 0.416 | 0.443 | 0.659 | 0.776 | 0.806 | 0.554 | 1.06 | 1.2 | 1.14 | 1.02 | 0.0665 | 0.0632 | 0.0606 | 0.0433 | 0.811 | 0.941 | 0.762 | 0.489
CAL-12T | 0.289 | 0.304 | 0.317 | 0.327 | – | – | – | – | 0.81 | 0.666 | 0.703 | 0.714 | 1.29 | 1.24 | 1.2 | 1.07 | 1.13 | 1.15 | 0.816 | 0.527
COR-L23 | 0.186 | 0.243 | 0.234 | 0.17 | 0.443 | 0.474 | 0.402 | 0.372 | 0.32 | 0.31 | 0.297 | 0.328 | 1.1 | 1.15 | 0.949 | 0.561 | 1.1 | 1.04 | 1.03 | 0.963
COR-L 105 | 0.419 | 0.309 | 0.403 | 0.345 | 0.681 | 0.656 | 0.62 | 0.541 | 0.774 | 0.7 | 0.57 | 0.749 | 0.739 | 0.77 | 0.679 | 0.521 | 1.1 | 0.658 | 0.779 | 0.527
Calu-6 | – | – | – | – | – | – | – | – | – | 0.592 | 0.653 | 0.614 | 0.911 | 0.855 | 0.656 | 0.569 | 1.09 | 0.933 | 0.925 | 0.894
ChaGo-K-1 | 0.236 | 0.268 | 0.2 | 0.228 | 0.526 | 0.51 | 0.491 | 0.495 | 0.404 | 0.422 | 0.413 | 0.429 | 1.19 | 1.32 | 0.987 | 0.826 | 1.16 | 1.1 | 1.09 | 0.828
EBC-1 | – | – | – | – | – | – | – | – | 0.362 | 0.685 | 0.484 | 0.175 | 0.38 | 0.412 | 0.164 | 0.126 | 0.474 | 0.603 | 0.414 | 0.255
EKVX | 0.405 | 0.395 | 0.344 | 0.329 | 0.318 | 0.334 | 0.249 | 0.195 | 0.866 | 0.777 | 0.745 | 0.67 | 0.971 | 0.958 | 0.675 | 0.377 | 1.13 | 0.937 | 0.66 | 0.394
EMC-BAC-2 | 0.333 | 0.298 | 0.271 | 0.261 | 0.967 | 0.978 | 0.838 | 0.653 | 0.438 | 0.462 | 0.451 | 0.419 | 1.1 | 1.14 | 1.07 | 0.649 | 1.05 | 1.2 | 0.917 | 0.68
EPLC-272H | 0.292 | 0.378 | 0.344 | 0.246 | 0.428 | 0.371 | 0.319 | 0.171 | 0.855 | 0.673 | 0.796 | 0.527 | 1.32 | 1.05 | 1.01 | 0.733 | 0.971 | 1.12 | 0.607 | 0.615
H3255 | 0.773 | 0.663 | 0.511 | 0.703 | 0.667 | 0.521 | 0.466 | 0.342 | 0.539 | 0.58 | 0.538 | 0.518 | 0.626 | 0.516 | 0.498 | 0.173 | 0.881 | 0.832 | 0.632 | 0.395
HARA | 0.0977 | 0.106 | 0.267 | 0.094 | 0.605 | 0.64 | 0.453 | 0.307 | 0.842 | 0.779 | 0.758 | 0.625 | 1.2 | 1.13 | 1.09 | 1.08 | 1.21 | 1.14 | 1.08 | 0.842
HCC-15 | 0.397 | 0.394 | 0.28 | 0.235 | 0.668 | 0.609 | 0.406 | 0.369 | 0.722 | 0.757 | 0.625 | 0.692 | 0.634 | 0.644 | 0.601 | 0.328 | 1.01 | 1.01 | 1.02 | 0.899
